The target of assay [1] is T1, Nav1.7 I1612A (Homo sapiens, UniProt Q15858, I1612A).
T1 construct: expressed in transfected cells; host or cells: HEK293T
Description: Single site-directed mutagenesis, inhibition by patch clamp. The class given is cell-based. As to conditions: 1 μM. The method, then: (§1) The amino acids depicted in Fig. 4C were individually mutated to alanine or glycine to perform single site-directed mutagenesis. Subsequently, the inhibition rates of these mutations against WN2-R were measured at a concentration of 1 μM (Fig. 4D). […] While single site-directed mutagenesis did affect the antagonistic activity of WN2-R, it did so to a limited extent, as the presumed induced-fit effect typically arises from the concerted movement of multiple residues.
(§2) Whole-cell patch-clamp recordings were conducted at 25 ± 2 °C, utilizing an EPC 10USB patch-clamp amplifier (HEKA Elektronik, Lambrecht, Germany). Pipettes, with access resistance between 2.0 and 3.0 MΩ, were pulled from borosilicate glass capillary tubes using a 2-step vertical microelectrode puller (PC-10, Narishige Group, Tokyo, Japan). Voltage-clamp recordings were obtained with PatchMaster software v2 × 73 (HEKA Elektronik) 5 min after establishing whole-cell configuration, sampled at 20 kHz, and filtered at 5 kHz. To minimize voltage errors, 80% series resistance compensation was applied. Pipettes were filled with 140 mM CsF, 10 mM NaCl, 1 mM EGTA, and 10 mM HEPES (pH=7.4, adjusted with CsOH). The external solution contained 140 mM NaCl, 2 mM CaCl2, 1 mM MgCl2, 5 mM KCl, 10 mM HEPES, and 10 mM glucose (pH=7.4, adjusted with NaOH). IC50 values were determined in HEK293T or ND7/23 cell lines by voltage clamping at −80 mV, followed by stepping to the V1/2 of inactivation for 8 s to facilitate compound binding.
On the technique in general: Patch clamp records ionic current or voltage across a cell membrane.

In assay [2] the target is T2, Nav1.7 R1613A (Homo sapiens, UniProt Q15858, R1613A).
T2 construct: expressed in transfected cells; host or cells: HEK293T
T2 sequence (Q15858 whole entry R1613A): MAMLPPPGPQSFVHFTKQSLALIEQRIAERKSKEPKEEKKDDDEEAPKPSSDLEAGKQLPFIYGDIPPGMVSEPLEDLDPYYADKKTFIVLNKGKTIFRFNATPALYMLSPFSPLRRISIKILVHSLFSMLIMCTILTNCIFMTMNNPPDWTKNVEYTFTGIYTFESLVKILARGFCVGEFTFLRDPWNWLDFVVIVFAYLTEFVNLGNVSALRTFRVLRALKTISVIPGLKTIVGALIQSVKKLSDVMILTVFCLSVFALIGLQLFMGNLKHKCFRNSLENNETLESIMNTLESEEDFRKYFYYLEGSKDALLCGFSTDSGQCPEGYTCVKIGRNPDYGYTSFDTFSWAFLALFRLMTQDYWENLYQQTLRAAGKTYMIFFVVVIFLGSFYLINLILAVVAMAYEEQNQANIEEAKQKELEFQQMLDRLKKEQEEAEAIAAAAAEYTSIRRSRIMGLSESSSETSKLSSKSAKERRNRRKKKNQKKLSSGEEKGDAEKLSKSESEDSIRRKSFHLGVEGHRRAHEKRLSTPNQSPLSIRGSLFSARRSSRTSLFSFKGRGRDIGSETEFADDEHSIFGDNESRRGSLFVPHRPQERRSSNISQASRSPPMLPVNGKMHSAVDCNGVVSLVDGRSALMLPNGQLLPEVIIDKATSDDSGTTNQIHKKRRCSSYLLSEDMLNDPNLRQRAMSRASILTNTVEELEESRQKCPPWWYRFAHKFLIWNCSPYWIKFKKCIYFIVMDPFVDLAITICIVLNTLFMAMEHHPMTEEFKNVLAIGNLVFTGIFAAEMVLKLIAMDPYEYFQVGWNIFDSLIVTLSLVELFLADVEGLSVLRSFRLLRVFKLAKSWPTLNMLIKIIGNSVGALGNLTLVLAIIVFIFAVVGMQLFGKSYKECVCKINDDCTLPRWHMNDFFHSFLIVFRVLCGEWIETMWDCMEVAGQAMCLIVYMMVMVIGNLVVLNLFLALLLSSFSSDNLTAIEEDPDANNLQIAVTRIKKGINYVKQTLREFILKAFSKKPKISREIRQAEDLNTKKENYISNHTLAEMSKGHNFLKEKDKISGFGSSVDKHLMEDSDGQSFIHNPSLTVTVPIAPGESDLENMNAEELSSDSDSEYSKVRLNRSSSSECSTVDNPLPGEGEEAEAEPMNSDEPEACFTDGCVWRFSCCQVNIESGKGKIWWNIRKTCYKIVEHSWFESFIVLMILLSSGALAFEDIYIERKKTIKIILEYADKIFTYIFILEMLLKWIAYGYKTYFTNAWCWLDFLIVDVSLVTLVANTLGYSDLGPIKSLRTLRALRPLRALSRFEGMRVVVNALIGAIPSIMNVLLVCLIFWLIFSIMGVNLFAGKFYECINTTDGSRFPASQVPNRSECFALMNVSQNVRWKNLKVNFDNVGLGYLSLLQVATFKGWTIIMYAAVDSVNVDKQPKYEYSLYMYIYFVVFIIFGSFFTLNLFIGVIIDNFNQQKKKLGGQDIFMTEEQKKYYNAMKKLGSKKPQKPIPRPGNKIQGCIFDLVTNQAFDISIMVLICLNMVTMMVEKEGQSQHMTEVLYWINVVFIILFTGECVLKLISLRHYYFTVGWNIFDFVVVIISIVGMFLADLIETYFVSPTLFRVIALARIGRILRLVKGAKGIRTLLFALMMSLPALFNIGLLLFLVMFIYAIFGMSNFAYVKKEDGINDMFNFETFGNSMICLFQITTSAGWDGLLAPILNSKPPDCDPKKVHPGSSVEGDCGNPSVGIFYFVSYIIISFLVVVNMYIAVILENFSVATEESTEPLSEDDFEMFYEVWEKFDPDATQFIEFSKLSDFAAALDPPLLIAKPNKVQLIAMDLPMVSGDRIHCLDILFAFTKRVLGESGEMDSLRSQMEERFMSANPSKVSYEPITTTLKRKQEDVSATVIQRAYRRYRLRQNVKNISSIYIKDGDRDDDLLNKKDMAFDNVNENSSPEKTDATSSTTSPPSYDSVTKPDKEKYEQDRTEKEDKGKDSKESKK
T2 sequence (Q07699 19-218 partner): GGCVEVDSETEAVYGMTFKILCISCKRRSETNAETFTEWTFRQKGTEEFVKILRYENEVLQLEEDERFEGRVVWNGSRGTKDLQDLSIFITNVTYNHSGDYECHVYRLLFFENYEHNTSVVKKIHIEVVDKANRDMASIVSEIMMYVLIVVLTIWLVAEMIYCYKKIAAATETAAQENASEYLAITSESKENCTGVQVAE
T2 sequence (O60939 30-215 partner): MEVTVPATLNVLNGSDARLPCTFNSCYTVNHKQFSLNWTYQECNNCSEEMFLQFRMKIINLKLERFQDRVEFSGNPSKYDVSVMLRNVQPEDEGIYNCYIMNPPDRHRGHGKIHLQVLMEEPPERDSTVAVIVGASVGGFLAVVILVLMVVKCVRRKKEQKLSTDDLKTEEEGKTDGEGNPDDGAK
The description is as above. Format: cell-based. The note with it: 1 μM. As for the experimental part:
as §1, §2

Assay [3] deals with T3, Nav1.7 A1596G (Homo sapiens, UniProt Q15858, A1596G).
T3 construct: expressed in transfected cells; host or cells: HEK293T
The description is as above. Format: cell-based. As to conditions: 1 μM. The method, then:
as §1, §2

Assay [4] deals with T4, Nav1.7 T1544A (Homo sapiens, UniProt Q15858, T1544A).
T4 construct: expressed in transfected cells; host or cells: HEK293T
The assay is described as above. The class given is cell-based. As to conditions: 1 μM. As for the experimental part: as §1, §2

For assay [5], the target named is T5, Nav1.7 M1593A (Homo sapiens, UniProt Q15858, M1593A).
T5 construct: expressed in transfected cells; host or cells: HEK293T
Described as above. The class given is cell-based. The note with it: 1 μM. As for the experimental part: as §1, §2

Assay [6] concerns the target T6, Nav1.7 F1609A (Homo sapiens, UniProt Q15858, F1609A).
T6 construct: expressed in transfected cells; host or cells: HEK293T
The assay is described as above. Format: cell-based. As to conditions: 1 μM. As for the experimental part:
as §1, §2

The target of assay [7] is T7, Nav1.7 Y1548A (Homo sapiens, UniProt Q15858, Y1548A).
T7 construct: expressed in transfected cells; host or cells: HEK293T
The description is as above. The class given is cell-based. The note with it: 1 μM. As for the experimental part: as §1, §2

The target in assay [8] is T8, Nav1.7 N1551A (Homo sapiens, UniProt Q15858, N1551A).
T8 construct: expressed in transfected cells; host or cells: HEK293T
T8 sequence (Q15858 whole entry N1551A): as the sequence (Q15858 whole entry R1613A) above, with N1551A, A1613R counted along it
T8 sequence (Q07699 19-218 partner): as the sequence (Q07699 19-218 partner) above
T8 sequence (O60939 30-215 partner): as the sequence (O60939 30-215 partner) above
Described as above. As to conditions: 1 μM. Format: cell-based. The method, then: as §1, §2

The test system of assay [9] is formalin-induced acute inflammatory pain model in mice. Kind of assay: Formalin-induced inflammation pain model. The class given is in vivo, ICR mice. The note with it: 30 min before formalin. The method, then:
The formalin-induced acute inflammatory pain model in mice, achieved through the plantar injection of formalin aqueous solution, is another widely used model for acute inflammatory pain. This model comprises 2 stages: an initial phase ([…]) where pain is triggered by formalin's direct stimulation of nociceptive receptors on sensory neurons, followed by a second phase (15 to 40 min) characterized by persistent inflammatory pain due to tissue damage. Similarly, both i.g. and i.m. methods were used to evaluate the effect of WN2-R in this model (n = 6) (Fig. 6B and I). […] These findings were consistent across repeated experiments.
To induce the pain response, 20 μl of formalin (5%, w/v) was injected subcutaneously into the right hind paw of ICR mice (3 male and 3 female). Prior to the formalin injection, mice were preadministered with WN2-R (5 mg/kg i.g., 1 mg/kg i.m.), PF05089771 (5 mg/kg i.g., 1 mg/kg i.m.), or saline 30 min beforehand. The duration of licking/biting the injected paw was recorded every 5 min, commencing immediately after the formalin injection and continuing for 40 min. Phase I and II in this assay corresponded to the nociceptive response observed between 0 and 5 min and between 10 and 40 min, respectively.

Assay [10] deals with T9, hNav1.8 (Homo sapiens, UniProt Q9Y5Y9).
T9 construct: expressed in transfected cells; host or cells: ND7/23
Kind of assay: Subtype selectivity, patch clamp (ND7/23 cells). Format: cell-based. The note with it: 1 μM. As for the experimental part: VGSC inhibitors required credible subtype selectivity to void side effects caused by binding to nontarget subtypes. At a concentration of 1 μM, the inhibitory rates of WN2-R on hNav1.2, hNav1.3, hNav1.4, hNav1.5, mNav1.6, and hNav1.8 were determined (n = 3 to 6, Fig. 7A). […] To further evaluate the drug safety profile, high-dose acute toxicity experiments were conducted. Mice were administered a high dose of 30 mg/kg WN2-R through i.p. administration. The rotarod test, forced-swim test, and open field test were used to explore the effect of high-dose WN2-R on the motor ability of mice (n = 4). The rotarod test evaluated the drug's effect on motor coordination, the forced-swim test examined its impact on the overall motor system, and the open field test assessed the drug's influence on the motor and nervous systems. […]
Whole-cell patch-clamp recordings were conducted at 25 ± 2 °C, utilizing an EPC 10USB patch-clamp amplifier (HEKA Elektronik, Lambrecht, Germany). […] IC50 values were determined in HEK293T or ND7/23 cell lines by voltage clamping at −80 mV, followed by stepping to the V1/2 of inactivation for 8 s to facilitate compound binding.

Structures are written as SMILES.

Consider `Cc1ccc(Cn2cc([C@H](CC(=O)NCCN(C)C)c3ccc(F)cc3)c3ccccc32)cc1` [WN2-R], for which the “Inhibition rate on the mutant relative to wild type” value in assay [1] is reported as 30.6 % of WT; in [2] it was 57.4 % of WT; in [4], 60.7 % of WT; in assay [5], 57.1 % of WT; in [8], 58.9 % of WT. The “Effect of the mutation on antagonistic activity” value is reported as “exerted an influence” in assay [3], “minimal impact” in assay [6] and “minimal impact” in [7]. Besides, the “Licking time in phase I vs saline” value is “significantly reduced licking time” in [9] (i.g., 5 mg/kg) and “significantly reduced licking time” in assay [9] (i.m., 1 mg/kg). Besides, the “Licking time in phase II vs saline” value is on record as “failed to significantly reduce licking time” in assay [9] (i.g., 5 mg/kg) and “significantly reduced licking time” in [9] (i.m., 1 mg/kg). The “Inhibitory rate on hNav1.8” value in assay [10] is recorded as “much lower than that on Nav1.7”.

Values taken from publication PMC11775380, “Discovery of Novel Nav1.7-Selective Inhibitors with the 1H-Indole-3-Propionamide Scaffold for Effective Pain Relief” (Research, 2025).
